Measurements published in patent US20230015823A1, “METHODS OF ADMINISTERING VOXELOTOR” (Global Blood Therapeutics, Inc., priority 2019, published 2023).
Read-outs that look alike come from different tables or passages of the source.

Key:
[1] = Effect of acid reducing agent omeprazole on voxelotor; conditions: in vivo
[2] = PK in patients with HbSC genotype vs HbSS genotype; conditions: human, in vivo
[3] = Clinical pharmacokinetics of voxelotor in plasma, whole blood and RBCs; assay type: in vivo, human; conditions: for AUC(0-t): read-out: AUC0-24h, Geometric Mean (% CV); for Cmax: read-out: Cmax, Geometric Mean (% CV)
From the text: Voxelotor is absorbed into plasma and is then distributed predominantly into RBCs due to its preferential binding to Hb. The major route of elimination of voxelotor is by metabolism with subsequent excretion of metabolites into urine and feces. The PK are linear and voxelotor exposures increased proportionally with either single or multiple doses (Table 3) in whole blood, plasma, and RBCs. Steady-state after repeated administration is reached within 8 days and exposures of voxelotor are consistent with accumulation predicted based on single dose data in patients with SCD.
The median plasma and whole blood Tmax of voxelotor after oral administration is 2 hours. The mean peak concentrations in whole blood and RBCs are observed between 6 and 18 hours after oral administration.
(§1) Voxelotor apparent volume of distribution of the central compartment and peripheral compartment are 338 L and 72.2 L in plasma, respectively. Protein binding is 99.8% in vitro. The blood-to-plasma ratio is approximately 15:1 in patients with SCD.

[4] = target: P-gp (Homo sapiens, UniProt P08183); test: In vitro transporter studies: P-gp; assay type: in vitro ADME
[5] = tested on: sickle cell disease (SCD) patients; test: HOPE trial: efficacy in sickle cell disease; assay type: in vivo, human
Method: The efficacy and safety of OXBRYTA in sickle cell disease (SCD) was evaluated in HOPE, a randomized, double-blind, placebo-controlled, multicenter trial [NCT 03036813]. In this study, 274 patients were randomized to daily oral administration of OXBRYTA 1,500 mg (N=90), OXBRYTA 900 mg (N=92), or placebo (N=92). Patients were included if they had from 1 to 10 vasoocclusive crisis (VOC) events within 12 months prior to enrollment and baseline hemoglobin (Hb) ≥5.5 to ≤10.5 g/dL. Eligible patients on stable doses of hydroxyurea for at least 90 days were allowed to continue hydroxyurea therapy throughout the study. Randomization was stratified by patients already receiving hydroxyurea (yes, no), geographic region (North America, Europe, Other), and age (12 to <17 years, 18 to 65 years). The trial excluded patients who received red blood cell (RBC) transfusions within 60 days and erythropoietin within 28 days of enrollment, had renal insufficiency, uncontrolled liver disease, were pregnant, or lactating.
The majority of patients had HbSS or HbS/beta^0-thalassemia genotype (90%) and were receiving background hydroxyurea therapy (65%). The median age was 24 years (range: 12 to 64 years); 46 (17%) patients were 12 to <17 years of age. Median baseline Hb was 8.5 g/dL (5.9 to 10.8 g/dL). One hundred and fifteen (42%) had 1 VOC event and 159 (58%) had 2 to 10 events within 12 months prior to enrollment.
Efficacy was based on Hb response rate defined as a Hb increase of >1 g/dL from baseline to Week 24 in patients treated with OXBRYTA 1,500 mg versus placebo. […] No outlier subgroups were observed. The distribution of Hb change from baseline for individual patients completing 24 weeks of treatment with OXBRYTA 1,500 mg or placebo is depicted in FIG. 8.
Additional efficacy evaluation included change in Hb and percent change in indirect bilirubin and percent reticulocyte count from baseline to Week 24 (Table 4).

[6] = Effect of food on voxelotor PK; assay type: in vivo
[7] = target: MATE2-K (Homo sapiens, UniProt Q86VL8); test: In vitro transporter studies: MATE2-K; assay type: in vitro ADME
[8] = Voxelotor in milk of lactating rats; assay type: in vivo, rat
From the text: There are no data on the presence of voxelotor in human milk, the effects on the breastfed child, or the effects on milk production. […] Plasma concentrations of voxelotor in pregnant rats were higher than the concentration in milk. When a drug is present in animal milk, it is likely that the drug will be present in human milk. […] Because of the potential for serious adverse reactions in the breastfed child, including changes in the hematopoietic system, advise patients that breastfeeding is not recommended during treatment with OXBRYTA, and for at least 2 weeks after the last dose.

[9] = Protein binding in vitro; assay type: in vitro ADME
From the text: as §1

[10] = human, oral, 1500 mg, plasma, Voxelotor 1,500 mg
[11] = human, oral, 1500 mg, whole blood, Voxelotor 1,500 mg

Sequence of P-gp (P08183 whole entry): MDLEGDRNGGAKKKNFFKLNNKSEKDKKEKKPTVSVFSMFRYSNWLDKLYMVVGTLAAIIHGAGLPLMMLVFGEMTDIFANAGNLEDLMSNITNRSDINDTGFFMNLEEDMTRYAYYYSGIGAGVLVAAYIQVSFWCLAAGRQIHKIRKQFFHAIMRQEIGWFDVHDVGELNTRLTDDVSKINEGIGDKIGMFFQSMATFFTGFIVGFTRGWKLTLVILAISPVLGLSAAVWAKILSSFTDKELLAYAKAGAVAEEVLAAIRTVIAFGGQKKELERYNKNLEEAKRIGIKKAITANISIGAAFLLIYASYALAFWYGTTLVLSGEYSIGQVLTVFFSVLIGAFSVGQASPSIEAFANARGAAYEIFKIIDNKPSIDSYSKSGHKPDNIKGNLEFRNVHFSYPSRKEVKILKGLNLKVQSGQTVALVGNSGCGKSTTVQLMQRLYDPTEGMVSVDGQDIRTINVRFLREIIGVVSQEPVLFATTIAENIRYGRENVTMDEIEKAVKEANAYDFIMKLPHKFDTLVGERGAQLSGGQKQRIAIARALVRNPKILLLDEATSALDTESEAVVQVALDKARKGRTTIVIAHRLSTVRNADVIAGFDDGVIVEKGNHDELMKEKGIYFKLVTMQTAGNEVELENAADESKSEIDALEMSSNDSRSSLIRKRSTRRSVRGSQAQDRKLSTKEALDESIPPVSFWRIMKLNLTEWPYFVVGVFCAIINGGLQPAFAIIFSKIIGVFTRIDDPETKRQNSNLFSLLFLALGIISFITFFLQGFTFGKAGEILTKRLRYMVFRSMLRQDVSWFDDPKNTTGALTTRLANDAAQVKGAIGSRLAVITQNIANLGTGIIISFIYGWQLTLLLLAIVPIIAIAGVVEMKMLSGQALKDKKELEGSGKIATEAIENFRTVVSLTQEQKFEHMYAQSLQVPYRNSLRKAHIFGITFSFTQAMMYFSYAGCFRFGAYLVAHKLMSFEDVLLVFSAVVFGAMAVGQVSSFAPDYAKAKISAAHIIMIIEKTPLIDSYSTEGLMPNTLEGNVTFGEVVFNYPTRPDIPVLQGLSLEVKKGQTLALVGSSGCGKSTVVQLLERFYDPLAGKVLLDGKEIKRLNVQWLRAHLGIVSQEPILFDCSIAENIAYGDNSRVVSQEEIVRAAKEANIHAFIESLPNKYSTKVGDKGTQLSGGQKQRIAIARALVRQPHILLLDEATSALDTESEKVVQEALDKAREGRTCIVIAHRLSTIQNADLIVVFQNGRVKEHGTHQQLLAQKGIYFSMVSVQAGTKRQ
Sequence of MATE2-K (Q86VL8 1-566 isoform Q86VL8-3): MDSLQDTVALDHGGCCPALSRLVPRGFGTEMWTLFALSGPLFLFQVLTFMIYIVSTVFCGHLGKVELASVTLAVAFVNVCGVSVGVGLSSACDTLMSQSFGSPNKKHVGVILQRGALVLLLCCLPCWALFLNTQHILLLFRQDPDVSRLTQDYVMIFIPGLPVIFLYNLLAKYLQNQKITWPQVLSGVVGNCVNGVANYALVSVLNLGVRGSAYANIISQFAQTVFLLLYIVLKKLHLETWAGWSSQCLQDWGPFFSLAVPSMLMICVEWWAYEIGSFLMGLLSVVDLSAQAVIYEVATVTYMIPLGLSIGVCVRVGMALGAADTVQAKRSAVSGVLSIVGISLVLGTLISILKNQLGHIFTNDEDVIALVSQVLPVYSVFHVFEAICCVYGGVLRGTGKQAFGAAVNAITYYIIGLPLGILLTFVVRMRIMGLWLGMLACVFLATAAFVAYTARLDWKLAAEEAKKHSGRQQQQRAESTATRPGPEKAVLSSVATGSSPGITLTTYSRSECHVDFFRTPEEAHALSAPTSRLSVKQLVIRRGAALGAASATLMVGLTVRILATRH

Compound: CC(C)n1nccc1-c1ncccc1COc1cccc(O)c1C=O [voxelotor, 2-hydroxy-6-((2-(1-isopropyl-1H-pyrazol-5-yl)pyridin-3-yl)methoxy)benzaldehyde]
- effect of co-administered omeprazole (proton pump inhibitor) on voxelotor exposure [1]: did not alter voxelotor exposure
- steady state plasma AUC higher in HbSC vs HbSS genotype patients [2]: 23%
- steady state plasma Cmax higher in HbSC vs HbSS genotype patients [2]: 15%
- steady state whole blood AUC higher in HbSC (n=11) vs HbSS (n=220) genotype patients [2]: 50%
- steady state whole blood Cmax higher in HbSC vs HbSS genotype patients [2]: 45%
- AUC(0-t) [3, 10]: 246 µg·h/mL
- Cmax [3, 10]: 12.6 µg/mL
- AUC(0-t) [3, 11]: 3820 µg·h/mL
- Cmax [3, 11]: 179 µg/mL
- half-life ([3]; human, plasma, oral, 1500 mg, patients with SCD, read-out: terminal elimination half-life, geometric mean (converted)): 35.5 h
- Vd ([3]; human, plasma, oral, read-out: apparent volume of distribution of the central compartment): 338 L
- Tmax ([3]; human, plasma and whole blood, oral administration, read-out: median Tmax): 2 h
- time to steady-state after repeated administration ([3]; patients with SCD): ≤ 8 days
- apparent volume of distribution of the peripheral compartment ([3]; plasma): 72.2 L
- Half-life, Geometric Mean (% CV) ([3]; plasma, Voxelotor 1,500 mg): 35.5 (25) hours
- apparent oral clearance ([3]; plasma, patients with SCD): 6.7 L/h
- PK linearity ([3]; single or multiple doses, whole blood, plasma and RBCs): linear
- inhibition of P-gp [4]: not an inhibitor
- substrate of P-gp [4]: not a substrate
- Hemoglobin, adjusted mean change from baseline to Week 24 ([5]; 1,500 mg QD (N = 90)): 1.14 g/dL
- Indirect Bilirubin, adjusted mean percent change from baseline to Week 24 ([5]; 1,500 mg QD (N = 90)): −29.08%
- Percent Reticulocyte Count, adjusted mean percent change from baseline to Week 24 ([5]; 1,500 mg QD (N = 90)): −19.93%
- Hb response rate (Hb increase of >1 g/dL from baseline to Week 24) ([5]; 1,500 mg daily oral, 46/90, placebo 6.5%): 51.1%
- increase of AUC with high-fat, high-calorie meal relative to fasted state ([6]; plasma): 42%
- increase of Cmax with high-fat, high-calorie meal relative to fasted state ([6]; plasma): 95%
- increase of AUC with high-fat, high-calorie meal relative to fasted state ([6]; whole blood): 42%
- increase of Cmax with high-fat, high-calorie meal relative to fasted state ([6]; whole blood): 45%
- inhibition of MATE2-K [7]: not an inhibitor
- presence in milk [8]: detected in milk
- fraction unbound [9]: 0.002
